Data taken from patent publication US10087171B2, “Crystalline forms of cadazolid” (ACTELION PHARMACEUTICALS LTD, priority 2016, dated 2018).

Assays:
Type in all cases: physicochemical
[1] = Gravimetric water vapor sorption analysis GVS1 at 25° C.; conditions: for hysteresis in GVS: 0% to 95% r.h.
Experimental: GVS1: Projekt Messtechnik SPS 11-100n water vapor sorption analyzer. The samples are placed in aluminum crucibles on top of a microbalance. They are equilibrated at 25° C. and 50% r.h. and are then subjected to a pre-defined humidity program at 25° C. in the order 50-0-95-50% r.h. A scanning rate of r.h.=5%/h is used and ‘isohumid’ equilibration periods are included at the extreme values.

[2] = Relative thermodynamic stability deduced from melting points and melting enthalpies; conditions: at room temperature
Experimental: DSC data are collected on a Perkin Elmer DSC 7. The instrument is calibrated for energy and temperature using certified indium. Samples are sealed in hermetically closed gold crucibles under N2, heating rates of 10° C./min or 100° C./min, scan from −50° C. to variable end temperatures. Peak temperatures are reported for melting points.
The relative thermodynamic stability of polymorphic forms can be deduced from their melting points and melting enthalpies (L. Yu, Journal of Pharmaceutical Sciences 84 (1995) 966-974). These values are summarized in the Table 6 below for form A and C of cadazolid: […]

[3] = Suspension equilibration experiments
Experimental: 27 mg of cadazolid in form A and 25 mg of cadazolid in form C (obtainable as described in Example 3) are suspended in 1 mL H2O, treated for 5 min in an ultrasound bath and agitated at 25° C. The solid is filtered off after 5 days and analyzed. The obtained material is cadazolid in form B.
The following suspension equilibration experiments are performed in organic solvent (mixture of methanol and dichloromethane) and in water:
26 mg of cadazolid in form A and 25 mg of cadazolid in form C are suspended in 1 mL MeOH/CH2Cl21:3 and agitated at 25° C. The solid is filtered off after 5 days and is cadazolid in form A.
27 mg of cadazolid in form A and 26 mg of cadazolid in form C are suspended in 1 mL MeOH/CH2Cl2 1:3 and agitated at 5° C. for 2 days. Some solid is isolated by drying on a filter paper and consists of cadazolid in form A.
29 mg of cadazolid in form A and 26 mg of cadazolid in form C are suspended in 1 mL H2O, treated for 5 min in an ultrasound bath and agitated at 5° C. for 2 days. Some solid is isolated by drying on filter paper and consists of cadazolid in form B.

[4] = Gravimetric water vapor sorption analysis GVS2 at 25° C.
Excerpt: GVS2: Surface Measurement Systems Ltd. DVS-1 water vapor sorption analyzer. The sample is placed in a Pt pan suspended on a micro balance and is exposed to a N2 flow with 95% r.h. at the beginning and then decreasing with a constant rate of 5%/h.

[5] = MeOH/CH2Cl2 1:3, 25° C., 5 days

O=C(O)c1cn(C2CC2)c2cc(N3CCC(O)(COc4ccc(N5C[C@H](CO)OC5=O)cc4F)CC3)c(F)cc2c1=O [amorphous state, 1-cyclopropyl-6-fluoro-7-{4-[2-fluoro-4-((R)-5-hydroxymethyl-2-oxo-oxazolidin-3-yl)-phenoxymethyl]-4-hydroxy-piperidin-1-yl}-4-oxo-1,4-dihydro-quinoline-3-carboxylic acid]
solid form after GVS (post GVS XRPD) [1]: amorphous as tested by a post GVS | weight increase between 0% and 95% r.h. [1]: A weight increase of about 7% (circa | weight increase between 0% and 95% r.h. as equivalents H2O [1]: 2.3 equivalents H2O) between 0% and | hysteresis in GVS [1]: 95% r.h. with a significant hysteresis | water content of the solid at 40% r.h. [1]: 1.8% | hygroscopicity classification ([1]; 40% to 95% r.h., adapted methodology, classification according to Pharm. Eur 8.0, section 5.11): considered as being hygroscopic (adapted | water content of the solid at 95% r.h. [1]: 7.17%

O=C(O)c1cn(C2CC2)c2cc(N3CCC(O)(COc4ccc(N5C[C@H](CO)OC5=O)cc4F)CC3)c(F)cc2c1=O [crystalline form A, 1-cyclopropyl-6-fluoro-7-{4-[2-fluoro-4-((R)-5-hydroxymethyl-2-oxo-oxazolidin-3-yl)-phenoxymethyl]-4-hydroxy-piperidin-1-yl}-4-oxo-1,4-dihydro-quinoline-3-carboxylic acid]
maximum difference in water content between 0% and 95% r.h. [1]: ~0.5 mol/mol | hysteresis in GVS [1]: No hysteresis | water content of the solid at 40% r.h. [1]: 0.81% | water content of the solid at 95% r.h. [1]: 1.81% | relative thermodynamic stability of polymorphic forms A and C [2]: more thermodynamically stable form | solid form obtained after suspension equilibration of form A and form C together ([3]; H2O, 5° C., 2 days): form B | solid form obtained after suspension equilibration of form A and form C together ([3]; H2O, 25° C., 5 days): form B | solid form obtained after suspension equilibration of form A and form C together ([3]; MeOH/CH2Cl2 1:3, 5° C., 2 days): form A | solid form obtained after suspension equilibration of form A and form C together [3, 5]: form A | relative thermodynamic stability concluded from suspension equilibration and GVS2 data ([3]; at 25° C., both at low and high relative humidity): thermodynamically more stable than form C

O=C(O)c1cn(C2CC2)c2cc(N3CCC(O)(COc4ccc(N5C[C@H](CO)OC5=O)cc4F)CC3)c(F)cc2c1=O [crystalline form B, 1-cyclopropyl-6-fluoro-7-{4-[2-fluoro-4-((R)-5-hydroxymethyl-2-oxo-oxazolidin-3-yl)-phenoxymethyl]-4-hydroxy-piperidin-1-yl}-4-oxo-1,4-dihydro-quinoline-3-carboxylic acid]
continuous weight loss during 6 h equilibration at 95% r.h. [4]: 30% during 6 h equilibration at 95% r.h. is | r.h. at which the water content of form A is reached ([4]; decreasing r.h.): the r.h. at a rate of 5%/h. At 80% r.h., the water | additional, accelerated weight loss upon lowering the r.h. ([4]; r.h. lowered at a rate of 5%/h): loss of approx. 15% is observed upon lowering

O=C(O)c1cn(C2CC2)c2cc(N3CCC(O)(COc4ccc(N5C[C@H](CO)OC5=O)cc4F)CC3)c(F)cc2c1=O [crystalline form C, 1-cyclopropyl-6-fluoro-7-{4-[2-fluoro-4-((R)-5-hydroxymethyl-2-oxo-oxazolidin-3-yl)-phenoxymethyl]-4-hydroxy-piperidin-1-yl}-4-oxo-1,4-dihydro-quinoline-3-carboxylic acid]
water content of the solid at 40% r.h. [1]: 0.33% | water content of the solid at 95% r.h. [1]: 2.52% | solid form obtained after suspension equilibration of form A and form C together ([3]; H2O, 5° C., 2 days): form B | solid form obtained after suspension equilibration of form A and form C together ([3]; H2O, 25° C., 5 days): form B | solid form obtained after suspension equilibration of form A and form C together ([3]; MeOH/CH2Cl2 1:3, 5° C., 2 days): form A | solid form obtained after suspension equilibration of form A and form C together [3, 5]: form A
